Results published in patent US4605413A, “Stimulation of chemotaxis by chemotactic peptides” (The University of Alabama at Birmingham, priority 1983, dated 1986).
No end group written: not given here.

Key:
Assay type in all cases: cell-based
Monocytes = assay: Desensitization of monocyte chemotaxis by pre-exposure to elastin peptides; conditions: for % CONTROL: desensitized vs control; for Monocyte chemotaxis, CONTROL: no pre-exposure; for Monocyte chemotaxis, CONTROL / Monocyte chemotaxis, DESENSITIZED: mean of 15; for Monocyte chemotaxis, DESENSITIZED: pre-exposed to elastin peptides; for effect of pre-exposure to elastin-derived peptide fragments on monocyte chemotactic response: monocytes pre-exposed to elastin-derived peptide fragments, qualitative
fibroblasts = assay: Fibroblast chemotaxis in multi-blind well apparatus; conditions: for chemotactic activity of isolated hexapeptides: qualitative; for Fibroblast Migration, Net Cells/HPF ± SEM: N = 15; for chemotactic activity in presence of antibody to elastin: polyclonal antibody to elastin present, FIG. 4
Description: (§1) The chemotactic response of fibroblasts to a hexapeptide of the invention was measured using the techniques described in Senior et al, J. Clin. Invest., 70, 614-618 (1982), which is herein incorporated by reference. Although the actual conditions used may vary slightly, the following generally describes the experimental conditions.
(§2) Chemotaxis was determined in a multi-blind well apparatus using a polycarbonate membrane with 8-μm pores on top of a cellulose nitrate membrane having 0.45-μm pores to separate each well into upper and lower compartments. The lower compartment was filled with 240 μl of solution to be assayed (or control medium) and then covered with the membranes. In the upper compartment was placed 350 μl of cell suspension containing 1.2×10^5 cells/ml.
(§3) After both compartments of the wells were filled, the chemotaxis apparatus was placed in a humidified incubator at 37° C. in an atmosphere of 5% CO2 -95% air for several hours. The apparatus was then disassembled, and each membrane pair was removed and stained with hematoxylin. Cell migration was determined under high dry magnification (×400) by counting the cells that had moved to the interface between the two membranes and those on the lower membrane. Several high power fields (H.P.F.) were counted for each membrane. Multiple determinations of each experiment were conducted, and the results pooled. Cell migration is expressed as the net number of cells per H.P.F.; i.e., the number of cells per H.P.F. minus the number of cells per H.P.F. that migrated in response to control medium.

[1] = tested on: young fibroblasts (not yet synthesizing elastin); assay: Chemotaxis of young (immature) fibroblasts before and after induced differentiation; conditions: FIG. 2
Description: as §1, §2
as §3, with “The apparatus was then disassembled, and each membrane pair was removed and stained with hematoxylin.” left out, “Multiple determinations of each experiment were conducted, and the results pooled.” left out

[2] = FIG. 1, dose response of fibroblasts
[3] = chemoattractant at concentration for maximum chemotaxis

CSCC[C@H](NC=O)C(=O)N[C@@H](CC(C)C)C(=O)N[C@@H](Cc1ccccc1)C(=O)O [FMLP, formylmethionylleucylphenylalanine, reference compound]
% CONTROL (Monocytes; chemoattractant 10^-8 M): 77%
Monocyte chemotaxis, CONTROL (Monocytes; chemoattractant 10^-8 M): 100 Cells per high power field
Monocyte chemotaxis, DESENSITIZED (Monocytes; chemoattractant 10^-8 M): 77 Cells per high power field
% CONTROL (Monocytes; chemoattractant 10^-9 M): 100%
Monocyte chemotaxis, CONTROL (Monocytes; chemoattractant 10^-9 M): 45 Cells per high power field
Monocyte chemotaxis, DESENSITIZED (Monocytes; chemoattractant 10^-9 M): 45 Cells per high power field
effect of pre-exposure to elastin-derived peptide fragments on monocyte chemotactic response (Monocytes): pre-exposure has no effect on response

H-APGVGV-OH [H--APGVGV--OH]
chemotactic activity of isolated hexapeptides (fibroblasts): chemotactic activity is also seen

H-GVAPGV-OH [H--GVAPGV--OH]
chemotactic activity of isolated hexapeptides (fibroblasts): chemotactic activity is also seen

H-GVGVAP-OH [H--GVGVAP--OH]
chemotactic activity of isolated hexapeptides (fibroblasts): chemotactic activity is also seen

H-PGVGVA-OH [H--PGVGVA--OH]
chemotactic activity of isolated hexapeptides (fibroblasts): chemotactic activity is also seen

H-VAPGVG-OH [H--VAPGVG--OH]
chemotactic activity of isolated hexapeptides (fibroblasts): chemotactic activity is also seen

VGVAPG [VGVAPG, VAL--GLY--VAL--ALA--PRO--GLY]
% CONTROL (Monocytes; chemoattractant 10^-8 M): 0%
Monocyte chemotaxis, CONTROL (Monocytes; chemoattractant 10^-8 M): 70 Cells per high power field
Monocyte chemotaxis, DESENSITIZED (Monocytes; chemoattractant 10^-8 M): -4 Cells per high power field
% CONTROL (Monocytes; chemoattractant 10^-9 M): 0%
Monocyte chemotaxis, CONTROL (Monocytes; chemoattractant 10^-9 M): 42 Cells per high power field
Monocyte chemotaxis, DESENSITIZED (Monocytes; chemoattractant 10^-9 M): -2 Cells per high power field
effect of pre-exposure to elastin-derived peptide fragments on monocyte chemotactic response (Monocytes): no longer show chemotaxis
concentration of greatest chemotactic activity (fibroblasts; [2]): 10^-9 M
concentrations at which chemotactic response was seen (fibroblasts; [2]): higher than 10^-11 M
nature of fibroblast response (chemotaxis vs random movement) (fibroblasts; Table 1 gradient analysis): chemotaxis and not simply stimulation of random movement
Fibroblast Migration, Net Cells/HPF ± SEM (fibroblasts; VGVAPG lower compartment 0, upper compartment 10^-8 M): -2 ± 0.5 Net Cells/HPF
Fibroblast Migration, Net Cells/HPF ± SEM (fibroblasts; VGVAPG lower compartment 0, upper compartment 10^-9 M): 0 ± 0.7 Net Cells/HPF
Fibroblast Migration, Net Cells/HPF ± SEM (fibroblasts; VGVAPG lower compartment 0, upper compartment 10^-10 M): 1 ± 0.6 Net Cells/HPF
Fibroblast Migration, Net Cells/HPF ± SEM (fibroblasts; VGVAPG lower compartment 10^-8 M, upper compartment 0): 27 ± 1.7 Net Cells/HPF
Fibroblast Migration, Net Cells/HPF ± SEM (fibroblasts; VGVAPG lower compartment 10^-8 M, upper compartment 10^-8 M): 1 ± 0.7 Net Cells/HPF
Fibroblast Migration, Net Cells/HPF ± SEM (fibroblasts; VGVAPG lower compartment 10^-8 M, upper compartment 10^-9 M): 3 ± 0.6 Net Cells/HPF
Fibroblast Migration, Net Cells/HPF ± SEM (fibroblasts; VGVAPG lower compartment 10^-8 M, upper compartment 10^-10 M): 13 ± 1.8 Net Cells/HPF
Fibroblast Migration, Net Cells/HPF ± SEM (fibroblasts; VGVAPG lower compartment 10^-9 M, upper compartment 0): 15 ± 1.7 Net Cells/HPF
Fibroblast Migration, Net Cells/HPF ± SEM (fibroblasts; VGVAPG lower compartment 10^-9 M, upper compartment 10^-8 M): 0 ± 0.6 Net Cells/HPF
Fibroblast Migration, Net Cells/HPF ± SEM (fibroblasts; VGVAPG lower compartment 10^-9 M, upper compartment 10^-9 M): 0 ± 0.4 Net Cells/HPF
Fibroblast Migration, Net Cells/HPF ± SEM (fibroblasts; VGVAPG lower compartment 10^-9 M, upper compartment 10^-10 M): 7 ± 1.3 Net Cells/HPF
Fibroblast Migration, Net Cells/HPF ± SEM (fibroblasts; VGVAPG lower compartment 10^-10 M, upper compartment 0): 4 ± 1.0 Net Cells/HPF
Fibroblast Migration, Net Cells/HPF ± SEM (fibroblasts; VGVAPG lower compartment 10^-10 M, upper compartment 10^-8 M): 1 ± 1.0 Net Cells/HPF
Fibroblast Migration, Net Cells/HPF ± SEM (fibroblasts; VGVAPG lower compartment 10^-10 M, upper compartment 10^-9 M): -3 ± 0.4 Net Cells/HPF
Fibroblast Migration, Net Cells/HPF ± SEM (fibroblasts; VGVAPG lower compartment 10^-10 M, upper compartment 10^-10 M): 2 ± 0.7 Net Cells/HPF
chemotactic activity of isolated hexapeptides (fibroblasts): most chemotactic of the isolated hexapeptides
chemotactic activity in presence of antibody to elastin (fibroblasts): blocks the chemotactic activity
migration of young fibroblasts [1]: do not migrate

platelet-derived growth factor [PDGF]
Fibroblast Migration, Positive Control (fibroblasts; PDGF, 10^-9 M): 31 Cells/HPF
chemotactic activity in presence of antibody to elastin (fibroblasts): has no effect on the chemotactic activity
migration of young fibroblasts [1]: have the capacity to migrate

B1: C5A: activity derived from the fifth component of complement (C5a) (protein, UniProt P01031 678-751, looked up)
C5a anaphylatoxin: TLQKKIEEIAAKYKHSVVKKCCYDGACVNNDETCEQRAARISLGPRCIKAFTECCVVASQLRANISHKDMQLGR
modifications: C5a anaphylatoxin
% CONTROL (Monocytes; [3]): 100%
Monocyte chemotaxis, CONTROL (Monocytes; [3]): 102 Cells per high power field
Monocyte chemotaxis, DESENSITIZED (Monocytes; [3]): 102 Cells per high power field
effect of pre-exposure to elastin-derived peptide fragments on monocyte chemotactic response (Monocytes): pre-exposure has no effect on response
